Results reported in US8637511B2, “Aminopyrimidines useful as kinase inhibitors” (Vertex Pharmaceuticals Incorporated, priority 2005, dated 2014).
Read-outs that look alike come from different tables or passages of the source.

How the values were obtained:
Aurora-2 (Aurora A) = target: T1, Aurora-2 (Aurora A) (Homo sapiens, UniProt O14965); assay: Aurora-2 (Aurora A) inhibition assay, coupled enzyme; type: biochemical
T1 sequence (O14965 1-403): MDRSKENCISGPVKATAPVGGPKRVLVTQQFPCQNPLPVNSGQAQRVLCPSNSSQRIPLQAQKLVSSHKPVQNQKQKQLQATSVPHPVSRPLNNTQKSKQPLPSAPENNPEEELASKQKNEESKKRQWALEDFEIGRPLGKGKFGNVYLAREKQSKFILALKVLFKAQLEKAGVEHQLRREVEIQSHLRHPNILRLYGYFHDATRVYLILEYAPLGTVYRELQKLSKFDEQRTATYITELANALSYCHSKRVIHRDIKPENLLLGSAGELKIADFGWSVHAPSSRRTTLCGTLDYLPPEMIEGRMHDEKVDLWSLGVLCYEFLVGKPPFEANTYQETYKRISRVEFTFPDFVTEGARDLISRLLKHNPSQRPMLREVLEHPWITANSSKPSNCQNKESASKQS
In short: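 Coupled pyruvate kinase/lactate dehydrogenase assay with NADH in pH 7.5 Hepes containing MgCl2, DTT and NaCl, using 40 nM Aurora-2 at 30 °C. After a 10 min preincubation, enzyme addition started the reaction, and initial rates were taken over 10 min. IC50 and Ki came from non-linear regression.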

JAK3 = target: T2, JAK3 (Homo sapiens, UniProt P52333); assay: biochemical
T2 sequence (P52333 1-1124): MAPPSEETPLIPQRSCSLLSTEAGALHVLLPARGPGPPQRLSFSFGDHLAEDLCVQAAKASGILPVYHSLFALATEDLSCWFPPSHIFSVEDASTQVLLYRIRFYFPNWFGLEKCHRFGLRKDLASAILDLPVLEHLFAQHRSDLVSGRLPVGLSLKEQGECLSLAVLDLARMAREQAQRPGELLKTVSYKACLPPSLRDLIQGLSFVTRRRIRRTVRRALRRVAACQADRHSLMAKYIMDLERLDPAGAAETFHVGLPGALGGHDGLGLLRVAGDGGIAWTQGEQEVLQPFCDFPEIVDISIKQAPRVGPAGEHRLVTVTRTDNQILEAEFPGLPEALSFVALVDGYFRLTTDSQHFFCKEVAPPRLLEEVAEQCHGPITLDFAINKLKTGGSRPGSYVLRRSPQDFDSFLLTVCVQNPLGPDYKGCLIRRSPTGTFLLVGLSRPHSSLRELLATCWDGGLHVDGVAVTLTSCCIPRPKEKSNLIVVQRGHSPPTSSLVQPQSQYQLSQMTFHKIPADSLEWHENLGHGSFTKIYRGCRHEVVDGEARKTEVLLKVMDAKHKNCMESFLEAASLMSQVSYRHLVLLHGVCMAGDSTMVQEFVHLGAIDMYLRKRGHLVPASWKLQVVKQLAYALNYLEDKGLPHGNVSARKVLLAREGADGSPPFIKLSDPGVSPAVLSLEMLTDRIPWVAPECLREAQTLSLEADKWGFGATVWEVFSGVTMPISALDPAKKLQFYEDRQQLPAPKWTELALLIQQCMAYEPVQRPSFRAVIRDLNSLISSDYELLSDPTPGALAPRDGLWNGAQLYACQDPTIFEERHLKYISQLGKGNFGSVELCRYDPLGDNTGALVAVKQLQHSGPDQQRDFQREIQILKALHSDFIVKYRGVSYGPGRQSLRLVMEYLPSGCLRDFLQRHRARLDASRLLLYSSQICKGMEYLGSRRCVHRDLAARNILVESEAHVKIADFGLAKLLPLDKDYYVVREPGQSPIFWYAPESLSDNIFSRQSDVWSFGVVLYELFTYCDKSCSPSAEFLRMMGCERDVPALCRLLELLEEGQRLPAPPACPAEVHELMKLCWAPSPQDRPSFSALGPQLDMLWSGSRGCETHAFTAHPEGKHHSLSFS

[1] = read-out: Aurora A kinase Ki value

SMILES | Ki (Aurora-2 (Aurora A); [1]) | Ki (JAK3; read-out: JAK3 Ki value) | Ki (JAK3) | Ki (Aurora-2 (Aurora A))
Cc1cc(Nc2cc(N3CC(N4CCOCC4)C3)nc(Sc3ccc(NC(=O)C4(C(F)(F)F)CC4)cc3)n2)[nH]n1 [Compound 191] | ≤ 1 nM | 10 to 500 nM |  | 
Cc1ccc2cc(Sc3nc(Nc4cc(C)[nH]n4)cc(N4CC(C5CCC(F)C5)C4)n3)ccc2n1 (stereo not drawn) [Compound 198] | 1 to 5 nM | 10 to 500 nM |  | 
Cc1cc(Nc2cc(N3CCC3)nc(Sc3ccc(NC(=O)C(C)CC(F)(F)F)cc3)n2)[nH]n1 (stereo not drawn) [Compound 127] | 1 to 5 nM |  | 500 to 2000 nM | 
Cc1cc(Nc2cc(N3CCC3)nc(Sc3cccc(NC(=O)c4ccccc4Cl)c3)n2)[nH]n1 [Compound 49] | 5 to 200 nM | 10 to 500 nM |  | 
Cc1cc(Nc2cc(N3CCC3)nc(Sc3ccc(NC(=O)C4CC4(F)F)cc3)n2)[nH]n1 (stereo not drawn) [Compound 112] | 1 to 5 nM | ≤ 10 nM |  | 
Cc1cc(Nc2cc(N3CCC3)nc(Sc3ccc(N)cc3)n2)[nH]n1 [Compound 108] | 5 to 200 nM | ≤ 10 nM |  | 
CCC(=O)Nc1ccc(Sc2nc(Nc3cc(C)n[nH]3)cc(N3CC(C)(NC(C)(C)C)C3)n2)cc1 [Compound 80] | 1 to 5 nM |  | 10 to 500 nM | 
Cc1cc(Nc2cc(N3CCC3)nc(Sc3ccc4ccccc4c3)n2)n[nH]1 [Compound 25] | 1 to 5 nM |  | ≤ 10 nM | 
Cc1cc(Nc2cc(N3CCC3)nc(Sc3ccc(NC(=O)c4ccc(CN(C)C)cc4)cc3)n2)[nH]n1 [Compound 137] | 5 to 200 nM | 500 to 2000 nM |  | 
Cc1cc(Nc2cc(N3CC(N4CC[C@H](F)C4)C3)nc(Sc3ccc4ncccc4c3)n2)n[nH]1 [Compound 160] |  | ≤ 10 nM |  | ≤ 1 nM
CC1=NN=C(Nc2cc(N3CCC3)nc(Sc3ccc(NC(=O)c4ccccc4Cl)cc3)n2)C1 [Compound 5] | ≤ 1 nM | 10 to 500 nM |  | 
Cc1cc(Nc2cc(N3CCC3)nc(Sc3ccc(C(=O)N4CCCC4)cc3)n2)n[nH]1 [Compound 22] |  |  | 10 to 500 nM | 5 to 200 nM
Cc1cc(Nc2cc(N3CCC3)nc(Sc3ccc(NC(=O)c4ccc(Cl)cc4)cc3)n2)n[nH]1 [Compound 54] |  |  | 10 to 500 nM | 1 to 5 nM
Cc1cc(Nc2cc(N3CCC3)nc(Sc3ccc(NC(=O)c4c(F)cccc4N4CCC4)cc3)n2)n[nH]1 [Compound 8] | 1 to 5 nM |  | 10 to 500 nM | 
Cc1cc(Nc2cc(N3CC(O)(C4CC4)C3)nc(Sc3ccc4ccccc4c3)n2)n[nH]1 [Compound 131] | ≤ 1 nM |  | ≤ 10 nM | 
Cc1cc(Nc2cc(N3CCC3)nc(Sc3ccc(NC(=O)c4nccn4C)cc3)n2)n[nH]1 [Compound 166] | 5 to 200 nM | 10 to 500 nM |  | 
CCC(=O)Nc1ccc(Sc2nc(C#CC(C)(C)N3CCC3)cc(Nc3cc(C)n[nH]3)n2)cc1 [Compound 77] | 1 to 5 nM |  | 500 to 2000 nM | 
Cc1cnc(Nc2cc(N3CC(N)C3)nc(Sc3ccc(NC(=O)C4CC4)cc3)n2)s1 [Compound 2] | 5 to 200 nM |  | 500 to 2000 nM | 
COC1CN(c2cc(Nc3cc(C)[nH]n3)nc(Sc3ccc(NC(=O)c4ccccc4Cl)cc3)n2)C1 [Compound 12] |  |  | ≤ 10 nM | ≤ 1 nM
CC1=NN=C(Nc2cc(N3CCC3)nc(Sc3ccc(NC(=O)C4CCCN4C)cc3)n2)C1 (stereo not drawn) [Compound 6] | 5 to 200 nM |  |  | 
Cc1cnc(Nc2cc(N3CC(N(C)C)C3)nc(Sc3ccc(NC(=O)C4CC4)cc3)n2)s1 [Compound 1] | 5 to 200 nM |  | 10 to 500 nM | 

SMILES | Ki (Aurora-2 (Aurora A); [1]) | Ki (JAK3; read-out: JAK3 Ki value) | Ki (JAK3) | Ki (Aurora-2 (Aurora A))
Cc1cc(Nc2cc(N3CCC3)nc(Sc3ccc(C(=O)NCc4ccccc4)cc3)n2)n[nH]1 [Compound 19] |  |  | 10 to 500 nM | 5 to 200 nM
Cc1cc(Nc2cc(N3CC(N4CCCC4)C3)nc(Sc3ccc4ncccc4c3)n2)n[nH]1 [Compound 159] | 1 to 5 nM |  | ≤ 10 nM | 
Cc1cc(Nc2cc(N3CCC3)nc(Sc3ccc(NC(=O)C(C)(C)C)cc3)n2)[nH]n1 [Compound 114] | 1 to 5 nM |  | 500 to 2000 nM | 
Cc1cc(Nc2cc(N3CCC3)nc(Sc3ccc(NC(=O)c4ccncc4C(F)(F)F)cc3)n2)[nH]n1 [Compound 146] | ≤ 1 nM |  | 10 to 500 nM | 
CCCNC(=O)Nc1ccc(Sc2nc(Nc3cc(C)[nH]n3)cc(N3CCC3)n2)cc1 [Compound 73] | 5 to 200 nM | 500 to 2000 nM |  | 
O=C(CC(F)(F)F)Nc1ccc(Sc2nc(Nc3cc[nH]n3)cc(N3CC(F)(C4CC4)C3)n2)cc1 [Compound 148] | 1 to 5 nM |  | 10 to 500 nM | 
Cc1ccc(C(=O)Nc2ccc(Sc3nc(Nc4cc(C)n[nH]4)cc(N4CCC4)n3)cc2)cn1 [Compound 145] | 5 to 200 nM |  | 10 to 500 nM | 
CCC(=O)Nc1ccc(Sc2nc(Nc3cc(C)n[nH]3)cc(N3CC(C)(O)C3)n2)cc1 [Compound 71] | 1 to 5 nM | 10 to 500 nM |  | 
Cc1cc(Nc2cc(N3CC(F)(C4CC4)C3)nc(Sc3ccc4nc(C(F)(F)F)[nH]c4c3)n2)[nH]n1 [Compound 202] | 1 to 5 nM |  | ≤ 10 nM | 
CCC(=O)Nc1ccc(Sc2nc(Nc3cc(C4CC4)n[nH]3)cc(N3CC(N4CCOCC4)C3)n2)cc1 [Compound 78] | ≤ 1 nM | ≤ 10 nM |  | 
CC1=NN=C(Nc2cc(N3CCC3)nc(Sc3ccc(NC(=O)c4cccc(Cl)c4F)cc3)n2)C1 [Compound 61] | ≤ 1 nM | 10 to 500 nM |  | 
Cc1cc(Nc2cc(N3CCC3)nc(Sc3ccc(NC(=O)c4ocnc4C)cc3)n2)n[nH]1 [Compound 167] | 5 to 200 nM |  | 10 to 500 nM | 
CCC(=O)Nc1ccc(Sc2nc(Nc3cc(C)[nH]n3)cc(N3CCC3)n2)cc1 [Compound 14] | 1 to 5 nM | 10 to 500 nM |  | 
Cc1cc(Nc2cc(N3CCC3)nc(Sc3ccc(NC(=O)NCc4ccccc4)cc3)n2)n[nH]1 [Compound 74] | 5 to 200 nM |  | 10 to 500 nM | 
COc1ccc(C(=O)Nc2ccc(Sc3nc(Nc4cc(C)n[nH]4)cc(N4CCC4)n3)cc2)cc1 [Compound 117] | 1 to 5 nM |  | 10 to 500 nM | 
Cc1cc(Nc2cc(N3CC(C)(O)C3)nc(Sc3ccc(NC(=O)c4ccccc4C(F)(F)F)cc3)n2)[nH]n1 [Compound 115] |  |  | ≤ 10 nM | ≤ 1 nM
Cc1ccc2cc(Sc3nc(Nc4cc(C)[nH]n4)cc(N4CC(N5CCCC5)C4)n3)ccc2n1 [Compound 182] | 1 to 5 nM |  | 10 to 500 nM | 
Cc1cc(Nc2cc(N3CCC3)nc(Sc3ccc(NC(=O)OC(C)(C)C)cc3)n2)n[nH]1 [Compound 26] | 5 to 200 nM |  | 500 to 2000 nM | 
Cc1cc(Nc2cc(N3CCC3)nc(Sc3ccc(C(=O)Nc4ccccc4Cl)cc3)n2)[nH]n1 [Compound 48] | 1 to 5 nM | 10 to 500 nM |  | 
CC(=O)Nc1cccc(Sc2nc(Nc3cc(C)n[nH]3)cc(N3CC(F)(C4CC4)C3)n2)c1 [Compound 188] | 5 to 200 nM | 10 to 500 nM |  | 
